Assay [1] concerns the target T1, PfHT (Plasmodium falciparum, UniProt O97467).
T1 construct: endogenous in cells; host or cells: P. falciparum 3D7 parasites freed from human erythrocytes
T1 sequence (O97467 1-504): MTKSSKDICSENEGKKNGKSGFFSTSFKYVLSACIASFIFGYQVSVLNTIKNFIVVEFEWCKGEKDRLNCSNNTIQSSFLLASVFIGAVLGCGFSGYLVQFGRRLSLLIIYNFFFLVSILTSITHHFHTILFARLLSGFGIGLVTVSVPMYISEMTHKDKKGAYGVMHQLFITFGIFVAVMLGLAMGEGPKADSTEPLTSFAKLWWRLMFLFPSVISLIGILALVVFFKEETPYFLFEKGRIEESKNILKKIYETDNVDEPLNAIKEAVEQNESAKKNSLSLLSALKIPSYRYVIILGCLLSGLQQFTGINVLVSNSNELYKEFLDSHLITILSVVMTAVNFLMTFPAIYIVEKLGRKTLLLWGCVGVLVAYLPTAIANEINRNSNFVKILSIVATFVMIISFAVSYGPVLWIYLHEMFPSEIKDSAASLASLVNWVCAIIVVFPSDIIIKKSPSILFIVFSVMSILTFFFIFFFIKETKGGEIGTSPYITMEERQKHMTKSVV
The assay can be described thus: Heterologous FRET glucose sensor screening assay in PfHT-FLIP HEK293 cells. It counts as cell-based. Conditions: for inhibition at 10 µM: HEK293, FRET ratio, vehicle 100%, 200 μM CB 0%. The source says:
HEK293 cells were transfected with pcDNA3.1 FLII12Pglu-700uDelta6 (Addgene, Cambridge, Mass.), containing the FRET glucose sensor (HEK293-FLIP) using Optifect Reagent (Life Technologies, Waltham, Mass.) according to manufacturer's specifications. Cells that stably integrated the gene were selected using G418 (Sigma Aldrich, St. Louis, Mo.) and highest expressers were identified using Fluorescence Activated Cell Sorting (FACS). These cells were then stably transfected with PfHT, human GLUT1 (hGLUT1), human GLUT2 (hGLUT2), human GLUT3 (hGLUT3) or human GLUT4 (hGLUT4) DNA in the pcDNA 3.1(−) hygro plasmid (Life Technologies). Single clones were selected by comparing their ability to transport radiolabeled glucose. In all cell lines except for HEK293 overexpressing hGLUT1 cells, native hGLUT1 was knocked down using shRNA.
96-well plates were pretreated with 25 μg/ml Polyethylenimine (PEI, 750 kDa, Sigma Aldrich) solution containing 150 mM NaCl to maintain cell adhesion during washing steps. After 20 min incubation at room temperature (RT), PEI was aspirated and wells were air dried for 5 min. PfHT-FLIP cells were plated 48 h prior to the assay in black opaque 96-well plates (Greiner Bio-One, Monroe, N.C.), which were previously treated with PEI, at 30,000 cells/well. After cell plating, plates were then left in the sterile hood at RT for 45 min before transfer to the incubator to reduce edge effects. Compound screening was performed using the integrated and automated screening system (Beckman Coulter, Brea, Calif.) at the Washington University High Throughput Screening Core. SAMI EX software (Beckman Coulter) was used to design and execute the screening protocol. The Malaria Box (Medicines for Malaria Venture, Geneva, Switzerland) compound library was prediluted in glucose-free HEPES buffered saline solution (HBSS) (146 mM NaCl, 4.7 mM KCl, 0.6 mM MgSO4, 1.6 mM NaHCO3, 0.13 mM NaH2PO4, 2.5 mM CaCl2, 20 mM HEPES, pH 7.3) using the BiomekFX liquid handler (Beckman Coulter). A 1:100 dilution of 1 mM stock solution was prepared for 10 μM final concentration.
To initiate the screening assay, cells were washed twice with 150 μl HBSS per well using the ELx405 Plate Washer (Biotek, Winooski, Vt.). Cells were starved in HBSS for 30 min at RT, followed by aspiration of the HBSS from cell plates using the ELx405 Plate Washer. Cells were treated with 45 μl of diluted compound using the BiomekFX (with 3 replicate cell plates for each library plate) and incubated for 6 min at RT. To initiate the uptake, 5 μl of 100 mM glucose was added to the wells (final concentration 10 mM) using a Multidrop384 dispenser (Thermo Fisher Scientific, Waltham, Mass.). After incubation at RT for 120 min, fluorescence was measured using the 2102 EnVision Multilabel Plate Reader (Perkin Elmer, Waltham, Mass.) at excitation 436 nm (CFP) and emissions 485 nm (CFP) and 535 nm (YFP).
The Malaria Box was screened at 10 μM drug concentrations in triplicate and selected hits that decreased the FRET ratio by more than 30% with vehicle-treated cells set to 100% and cells treated with 200 μM CB set to 0%. Since fluorescent compounds have the potential to generate false positive hits, the FRET ratio of compounds without cells present was determined. After false positive elimination, 5 compounds were identified as primary hits. Hit confirmation was ascertained by determining the IC50 for glucose uptake into isolated P. falciparum parasites from blood culture using radiolabeled D-glucose. […] Compound MMV020548 was included for comparison as it was previously identified from the same library. The similar IC50 observed in the freed parasite glucose uptake assay and in vitro growth inhibition assay for MMV009085, was consistent with the interpretation that this compound is acting through PfHT blockage to inhibit parasite growth (Table 3) although, alternative targets in the parasite might be inhibited as well.

In assay [2] the target is T1, PfHT. The assay can be described thus: Uptake of [14C]-2-DOG into isolated (freed) P. falciparum parasites. It counts as cell-based. The protocol: P. falciparum strain 3D7 was cultured in 100 mm tissue culture dishes (Techno Plastic Products, Trasadingen Switzerland) in a 2% suspension of human erythrocytes and RPMI 1640 medium until reaching >5% parasitemia. Cells were pelleted via centrifugation and resuspended in RPMI. To determine the uptake of radiolabeled glucose into the parasite, it was isolated from the erythrocyte while removing uninfected erythrocytes. Uptake of [^14C]-2-DOG into isolated parasites was determined at RT using the methods described previously(19). Test compounds were added 5 min prior to the addition of [^14C]-2-DOG (0.2 μCi/ml final concentration). Uptake was quenched after 2 min Data were fit by nonlinear regression analysis using GraphPad Prism software. Uptake of [^3H]-2-DOG into HEK293-FLIP cell lines was measured in HEPES-buffered saline at RT for 4 min Data were fit by nonlinear regression analysis using GraphPad Prism software.

A further assay concerns P. falciparum strain 3D7. The assay is described as follows: P. falciparum growth inhibition assay (PicoGreen DNA content). It is filed as cell-based. Conditions: Plasmodium falciparum; for EC50: intraerythrocytic forms, strain 3D7. The protocol:
P. falciparum strain 3D7 was obtained from the Malaria Research and Reference Reagent Resource Center (MR4). P. falciparum parasites were cultured in a 2% suspension of human erythrocytes and RPMI 1640 (Sigma Aldrich) medium supplemented with 27 mM sodium bicarbonate, 11 mM glucose, 5 mM HEPES, 1 mM sodium pyruvate, 0.37 mM hypoxanthine, 0.01 mM thymidine, 10 μg/ml gentamicin, and 0.5% Albumax (Gibco, Waltham, Mass.) at 37° C., 5% O2/5% CO2/90% N2 atmosphere.
Asynchronous P. falciparum cultures were diluted to 1% parasitemia and were treated with compounds at concentrations ranging from 9.8 nM-20 μM. Growth inhibition assays were performed in 100 μl cultures in opaque 96-well plates. Parasite growth was quantified after 3 days by measuring DNA content using PicoGreen (Life Technologies). Fluorescence was measured by a FLUOstar Omega microplate reader (BMG Labtech, Cary, N.C.) at 485 nm excitation and 528 nm emission. IC50 values were calculated by nonlinear regression analysis using GraphPad Prism software.

Another assay has as its system P. falciparum. The conditions noted are these: values provided with the malaria box; read-out: EC50 for P. falciparum growth inhibition Malaria box; cited from earlier work.
The target in assay [3] is T1, PfHT. The assay can be described thus: Glucose uptake into PfHT overexpressing L. mexicana parasites (Ortiz et al.). It is filed as cell-based.
The subject of a further assay is hGLUTs 1-4. The assay is described as follows: Uptake of [3H]-2-DOG by HEK293 cells overexpressing PfHT or hGLUTs 1-4. It is filed as cell-based, human.
The target of assay [4] is T1, PfHT. Conditions: cited from earlier work.
Another assay has as its system parasites. Conditions: cited from earlier work.
Assay [5] concerns human insulin-responsive glucose transporter GLUT4. The conditions noted are these: cited from earlier work.
Setting [6] is: IC50 PfHT in parasites, Table 1.
The mark [7] stands for this setting: IC50 for glucose uptake in freed parasites, from dose-response curves of FIG. 4.
[8] abbreviates: 72 h, P. falciparum strain 3D7, growth after 3 days, read-out: IC50 3D7 in vitro.
[9] abbreviates: PfHT overexpressing L. mexicana, read-out: IC50 PfHT (determined by Ortiz et al. (15) in L. mexicana).

As usually defined, the inhibition is the percentage by which the read-out fell short of the control. Usually IC50 stands for the concentration that inhibits the measured activity by half. For orientation: EC50 means the midpoint of the concentration-response curve.

Read-outs that look alike come from different tables or passages of the source.

Method for hGLUTs 1-4: To establish selectivity of these hits for PfHT over human orthologues, the inhibition of GLUTs 1, 2, 3 and 4 was cross-validated by the confirmed hits. […] The inhibitory effect of the five confirmed hits was determined on all four human class I GLUTs at the IC50 concentration for PfHT-mediated glucose uptake inhibition.

`C=C1[C@@H](C)[C@H]2[C@H](Cc3ccccc3)NC(=O)[C@]23OC(=O)/C=C/[C@H](O)CCC[C@@H](C)C/C=C/[C@H]3[C@@H]1O` [CB, cytochalasin B, reference compound]: on PfHT [1] (50 μM, PfHT-FLIP cells), the “maximal decrease in FRET ratio” value stood at 75%. Moreover, on PfHT [1] (200 μM, PfHT-FLIP cells), the “inhibition of D-glucose uptake” value is listed as “complete inhibition”.
On to `Cc1ccc2nc(C)cc(Nc3cccc(C(F)(F)F)c3)c2c1` [MMV000326], for which the inhibition at 10 µM on PfHT [1] worked out at 49%. Also, the results for the half-maximal inhibitory concentration (IC50) at PfHT [2] (setting [6]), on PfHT [2] (setting [7]) and in the assay on P. falciparum strain 3D7 (setting [8]) were 139000 nM, 286000 nM and 344 nM, respectively. Further, the values for the 50% effective concentration (EC50) in the assay on P. falciparum strain 3D7 and with P. falciparum were 344 nM and 1170 nM, respectively.
For the compound `O=C1c2ccc3c4c(ccc(c24)C(=O)N1CCCCO)C(=O)N(CCCCO)C3=O` [MMV009085], the inhibition at 10 µM at PfHT [1] was 87%. The IC50 was 1800 nM against PfHT [2] (setting [6]); 2600 nM against PfHT [2] (IC50 for PfHT-mediated glucose uptake); 990 nM with P. falciparum strain 3D7 (3D7, read-out: IC50 malaria parasite growth assay); 987 nM with P. falciparum strain 3D7 (setting [8]); 51 nM on PfHT [4] (read-out: IC50 L. mexicana PfHT overexpression assay). In addition, the concentration giving a half-maximal response (EC50) was 987 nM in the assay with P. falciparum strain 3D7 and 795 nM in the assay with P. falciparum. The “difference in potency by the two assays (parasite growth vs L. mexicana PfHT overexpression)” value at PfHT [3] amounted to 20 fold. The “selectivity for PfHT over human orthologues (IC50s for glucose uptake inhibition)” value in the assay with hGLUTs 1-4 is “more than 10 fold”. The “glucose uptake versus proline transport in PfHT-overexpressing Leishmania mexicana” value (from here on “glucose uptake versus proline transport”) on PfHT [4] is “selectively inhibit glucose uptake, but not proline transport”.
On to `CCN1CCN(Cc2ccc(NC(=O)c3cc4ccc5cccnc5c4[nH]3)cc2)CC1` [MMV020548], for which, on PfHT [1], the inhibition at 10 µM came out at 21%. Further, the IC50 at PfHT [2] (setting [6]) is 21300 nM; at PfHT [2] (setting [7]), 15500 nM; in the assay on P. falciparum strain 3D7 (setting [8]) it was 114 nM; on PfHT [4] (setting [9]), 3500 nM. The EC50 in the assay with P. falciparum strain 3D7 was 114 nM; in the assay on P. falciparum, 361 nM. The “glucose uptake versus proline transport” value on PfHT [4] was “selectively inhibit glucose uptake, but not proline transport”.
For `CC(C)(C)C(=O)Nc1ccc(C(=O)Nc2cccc(-c3nc4ccccc4[nH]3)c2)cc1` [MMV665879], the inhibition at 10 µM at PfHT [1] was 49%. In addition, the IC50 on PfHT [2] (setting [6]) is 6600 nM; at PfHT [2] (setting [7]), 8300 nM; with P. falciparum strain 3D7 (setting [8]) it was 390 nM; on PfHT [4] (setting [9]), 2700 nM. Moreover, the EC50 with P. falciparum strain 3D7 was determined as 390 nM. Further, the “glucose uptake versus proline transport” value on PfHT [4] is given as “selectively inhibit glucose uptake, but not proline transport”.
For the compound `COc1cc(C(=O)Nc2ccc(-c3nc4ccccc4[nH]3)cc2)cc(OC)c1OC` [MMV665898], the inhibition at 10 µM at PfHT [1] came out at 64%. Besides, the IC50 at PfHT [2] (setting [6]) was 6200 nM; against PfHT [2] (setting [7]), 5300 nM; with P. falciparum strain 3D7 (setting [8]), 487 nM. Further, the values for the EC50 with P. falciparum strain 3D7 and in the assay on P. falciparum were 487 nM and 1220 nM, respectively.
With `CN(C)c1ccc(C(O)(c2ccc(N(C)C)cc2)c2ccc(N(C)C)cc2)cc1` [MMV665941], the inhibition at 10 µM on PfHT [1] was found to be 31%. Also, the “inhibition of glucose uptake at the highest concentration tested” value against PfHT [2] (FIG. 4) is recorded as “only partial inhibition”. Besides, the IC50 against PfHT [2] (setting [6]) stood at 13300 nM; on PfHT [2] (setting [7]), 19600 nM; in the assay with P. falciparum strain 3D7 (setting [8]), 26 nM. In addition, the concentration giving a half-maximal response (EC50) with P. falciparum strain 3D7 was 26 nM; with P. falciparum it was 255 nM.
Regarding `Cc1cccc(C)c1OCC(=O)N[C@@H](Cc1ccccc1)[C@@H](O)C[C@H](Cc1ccccc1)NC(=O)[C@H](C(C)C)N1CCCNC1=O` [lopinavir], the “FRET ratio with addition of D-glucose” value on PfHT [1] (PfHT-FLIP cells, FIG. 2a) is “decreased FRET ratio”. Also, in the assay on parasites, the IC50 is 16000 nM. Moreover, in assay [5], the “selectivity GLUT4 over PfHT” value was “higher selectivity for the human insulin-responsive glucose transporter GLUT4 over PfHT”.

The record behind these values is patent publication US20170307590A1, “INHIBITORS OF MALARIAL AND HUMAN GLUCOSE TRANSPORTERS AND METHODS FOR IDENTIFYING THE INHIBITORS” (Washington University in St. Louis, priority 2016, published 2017).
